US4849436A, “1,4-dihydropyridines” (Nelson Research & Development Co., priority 1986, dated 1989)

These compounds were tested against T1, dihydropyridine (DHP) site (Oryctolagus cuniculus, UniProt P07293) (assay: 3H-nitrendipine binding assay on washed rabbit skeletal muscle membranes). Settings: read-out: Binding Assay KI (moles).
T1 construct: Washed rabbit skeletal muscle membranes (fraction 2-8X); from tissue; host or cells: rabbit skeletal muscle, washed membranes (fraction 2-8X)
Method: The incubation tubes were rapidly chilled in ice and the contents filtered through Whatman GF/B filters on a Millipore manifold, and the filters washed with 2×10 ml ice-cold HEPES buffer. The filters were placed in scintillation counting vials with 8 ml of Cytoscint cocktail, disrupted mechanically by shaking for 30 minutes and counted.
Drugs which interact at the dihydropyridine (DHP) site will reduce this specific binding in a dosedependent manner. The assays for the compounds of this invention were made with logarithmically spaced concentrations, the data were plotted on a probitconcentration plot, and the IC50 read off. The KI of the compound was calculated by standard techniques.

T1 sequence (P07293 1-1664 limits assumed): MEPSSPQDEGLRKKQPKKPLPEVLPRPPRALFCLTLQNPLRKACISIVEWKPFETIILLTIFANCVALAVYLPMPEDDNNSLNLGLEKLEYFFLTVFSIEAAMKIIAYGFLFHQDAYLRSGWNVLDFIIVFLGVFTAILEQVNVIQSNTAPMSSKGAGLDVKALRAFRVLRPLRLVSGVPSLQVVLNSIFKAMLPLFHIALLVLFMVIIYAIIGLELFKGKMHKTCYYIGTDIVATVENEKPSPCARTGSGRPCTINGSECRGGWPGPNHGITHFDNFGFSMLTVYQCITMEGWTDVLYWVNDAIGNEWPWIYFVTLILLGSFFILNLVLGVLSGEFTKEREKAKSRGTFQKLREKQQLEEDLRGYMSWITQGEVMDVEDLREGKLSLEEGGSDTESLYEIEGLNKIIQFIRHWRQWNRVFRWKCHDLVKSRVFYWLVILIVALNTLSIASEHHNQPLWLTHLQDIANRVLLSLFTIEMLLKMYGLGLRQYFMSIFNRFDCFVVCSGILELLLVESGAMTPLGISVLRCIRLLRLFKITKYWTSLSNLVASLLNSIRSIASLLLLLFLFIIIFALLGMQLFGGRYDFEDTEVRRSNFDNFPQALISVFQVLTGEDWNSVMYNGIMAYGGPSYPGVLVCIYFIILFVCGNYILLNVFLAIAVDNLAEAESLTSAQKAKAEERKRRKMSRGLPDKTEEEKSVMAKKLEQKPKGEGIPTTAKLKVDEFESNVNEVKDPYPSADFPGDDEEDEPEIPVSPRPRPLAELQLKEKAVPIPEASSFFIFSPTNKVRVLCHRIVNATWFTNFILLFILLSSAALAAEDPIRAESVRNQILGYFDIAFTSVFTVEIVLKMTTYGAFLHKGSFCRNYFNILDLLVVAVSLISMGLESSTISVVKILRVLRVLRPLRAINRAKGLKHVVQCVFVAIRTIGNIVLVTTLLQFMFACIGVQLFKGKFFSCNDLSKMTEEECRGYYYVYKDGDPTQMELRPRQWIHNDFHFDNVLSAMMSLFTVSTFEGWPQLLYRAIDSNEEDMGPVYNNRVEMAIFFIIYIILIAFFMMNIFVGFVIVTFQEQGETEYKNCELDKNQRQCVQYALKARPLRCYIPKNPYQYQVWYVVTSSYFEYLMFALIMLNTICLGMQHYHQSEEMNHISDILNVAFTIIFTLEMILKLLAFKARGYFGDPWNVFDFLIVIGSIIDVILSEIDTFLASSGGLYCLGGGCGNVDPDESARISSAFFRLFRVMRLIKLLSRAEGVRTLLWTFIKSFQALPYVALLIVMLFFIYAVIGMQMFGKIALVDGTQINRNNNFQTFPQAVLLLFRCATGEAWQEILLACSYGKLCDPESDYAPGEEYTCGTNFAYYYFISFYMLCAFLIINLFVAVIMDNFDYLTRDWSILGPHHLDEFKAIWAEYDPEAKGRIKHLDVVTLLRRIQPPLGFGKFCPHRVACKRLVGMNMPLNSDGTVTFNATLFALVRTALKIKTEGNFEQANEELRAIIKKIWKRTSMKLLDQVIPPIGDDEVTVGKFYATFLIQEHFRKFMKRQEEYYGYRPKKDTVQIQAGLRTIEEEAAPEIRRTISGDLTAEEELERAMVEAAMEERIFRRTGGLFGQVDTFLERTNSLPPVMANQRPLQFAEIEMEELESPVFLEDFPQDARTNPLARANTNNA
T1 sequence (P13806 27-960 partner limits assumed): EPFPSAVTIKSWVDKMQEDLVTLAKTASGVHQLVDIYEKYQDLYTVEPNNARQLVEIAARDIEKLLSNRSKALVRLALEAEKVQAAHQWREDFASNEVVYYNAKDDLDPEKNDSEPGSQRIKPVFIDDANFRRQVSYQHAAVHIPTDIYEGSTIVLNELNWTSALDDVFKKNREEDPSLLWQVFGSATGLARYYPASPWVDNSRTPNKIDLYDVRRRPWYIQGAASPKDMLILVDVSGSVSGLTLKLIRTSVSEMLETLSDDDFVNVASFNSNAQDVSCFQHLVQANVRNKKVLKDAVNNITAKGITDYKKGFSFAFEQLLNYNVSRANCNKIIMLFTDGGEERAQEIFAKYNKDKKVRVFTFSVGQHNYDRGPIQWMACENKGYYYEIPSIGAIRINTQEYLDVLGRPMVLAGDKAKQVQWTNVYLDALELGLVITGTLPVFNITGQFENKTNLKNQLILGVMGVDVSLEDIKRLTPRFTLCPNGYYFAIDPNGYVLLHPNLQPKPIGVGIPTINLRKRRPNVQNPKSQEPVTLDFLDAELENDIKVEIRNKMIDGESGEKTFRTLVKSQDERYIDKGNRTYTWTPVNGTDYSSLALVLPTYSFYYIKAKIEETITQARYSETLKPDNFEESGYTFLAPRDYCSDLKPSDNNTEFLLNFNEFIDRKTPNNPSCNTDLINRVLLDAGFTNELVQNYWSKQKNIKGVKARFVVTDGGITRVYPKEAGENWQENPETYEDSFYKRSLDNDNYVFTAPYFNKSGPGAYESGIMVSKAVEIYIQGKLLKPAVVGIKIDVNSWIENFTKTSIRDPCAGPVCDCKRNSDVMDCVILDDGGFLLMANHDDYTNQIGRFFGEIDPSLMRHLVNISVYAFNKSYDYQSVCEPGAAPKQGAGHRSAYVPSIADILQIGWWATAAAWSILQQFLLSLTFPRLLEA
T1 sequence (P13806 961-1106 partner limits assumed): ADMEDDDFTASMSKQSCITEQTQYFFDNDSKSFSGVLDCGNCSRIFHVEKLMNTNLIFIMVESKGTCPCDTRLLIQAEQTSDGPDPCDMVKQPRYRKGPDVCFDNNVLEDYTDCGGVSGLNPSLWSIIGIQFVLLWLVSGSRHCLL
T1 sequence (P19517 whole entry partner): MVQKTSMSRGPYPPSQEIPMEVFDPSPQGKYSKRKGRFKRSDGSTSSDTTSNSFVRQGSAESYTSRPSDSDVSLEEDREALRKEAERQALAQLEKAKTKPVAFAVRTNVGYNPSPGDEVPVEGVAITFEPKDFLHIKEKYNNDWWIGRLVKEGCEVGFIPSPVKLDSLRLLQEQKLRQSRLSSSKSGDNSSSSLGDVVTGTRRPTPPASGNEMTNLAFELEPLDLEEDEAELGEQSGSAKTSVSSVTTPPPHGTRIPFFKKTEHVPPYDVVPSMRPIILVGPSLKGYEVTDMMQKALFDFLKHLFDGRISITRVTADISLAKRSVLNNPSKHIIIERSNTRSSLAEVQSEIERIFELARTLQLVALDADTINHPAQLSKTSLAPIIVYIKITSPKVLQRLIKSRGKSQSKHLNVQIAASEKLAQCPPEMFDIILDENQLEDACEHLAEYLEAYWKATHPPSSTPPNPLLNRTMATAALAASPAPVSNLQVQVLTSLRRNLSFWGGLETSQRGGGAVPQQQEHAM
T1 sequence (P19518 whole entry partner): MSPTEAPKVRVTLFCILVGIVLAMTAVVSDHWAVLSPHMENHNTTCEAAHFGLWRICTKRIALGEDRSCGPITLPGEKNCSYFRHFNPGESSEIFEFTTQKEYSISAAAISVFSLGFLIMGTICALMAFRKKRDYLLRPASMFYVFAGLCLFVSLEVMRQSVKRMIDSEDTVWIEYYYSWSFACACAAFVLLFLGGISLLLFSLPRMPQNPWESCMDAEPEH

Compound	Ki
COC(=O)C1=C(C)NC(C)=C(C(=O)OCCN=C=S)C1c1cccc([N+](=O)[O-])c1 (stereo not shown) [Example 7, 1,4-Dihydro-2,6-dimethyl-4-(3-nitrophenyl)-3,5-pyridine dicarboxylic acid, 3-(2isothiocyanatoethyl)-5-methyl ester]	1.3 nM
COC(=O)C1=C(C)NC(C)=C(C(=O)OCCCCCCN=C=S)C1c1cccc([N+](=O)[O-])c1 (stereo not shown) [Example 9, 1,4-Dihydro-2,6-dimethyl-4-(3-nitrophenyl)-3,5-pyridine dicarboxylic acid, 3-(6-isothiocyanatohexyl)-5-methyl ester]	1.9 nM
COC(=O)C1=C(C)NC(C)=C(C(=O)OCCCN=C=S)C1c1cccc([N+](=O)[O-])c1 (stereo not shown) [Example 8, 1,4-Dihydro-2.6-dimethyl-4-(3-nitrophenyl)-3,5-pyridine dicarboxylic acid, 3-(3-isothiocyanatopropyl)-5-methyl ester]	1.6 nM

Next, values leading:

Ki	Compound
1120 nM	CCOC(=O)C1=C(CCN2C(=O)c3ccccc3C2=O)NC(CCN2C(=O)c3ccccc3C2=O)=C(C(=O)OCC)C1c1cccc([N+](=O)[O-])c1 [Example 13, 1,4-Dihydro-4(3-nitrophenyl)-2,6-(2-phthalimidoethyl)-3,5-pyridine dicarboxylic acid, ethyl ester]
> 100 nM	COC(=O)C1=C(C)NC(C)=C(C(=O)OCCN)C1c1cccc([N+](=O)[O-])c1 (stereo not shown) [Example 3, 1,4-Dihydro-2,6-dimethyl-4-(3-nitrophenyl)-3,5-pyridine dicarboxylic acid, 3-(2-aminoethyl)-5-methyl ester]
1250 nM	COC(=O)C1=C(C)NC(C)=C(C(=O)OCCN)C1c1cccc(C)c1 (stereo not shown) [Example 2, 1,4-Dihydro-2,6-dimethyl-4-(3-methylphenyl)-3,5-pyridine dicarboxylic acid, 3-(2-aminoethyl)-5-methyl ester]
105 nM	CCOC(=O)C1=C(CCN2C(=O)c3ccccc3C2=O)NC(C)=C(C(=O)OC)C1c1cccc([N+](=O)[O-])c1 (stereo not shown) [12(e), 1,4-Dihydro-6-methyl-4(3-nitrophenyl)2-(2-phthalimidoethyl)-3,5-pyridine dicarboxylic acid-3-ethyl-5-methyl ester]
